{"source": "patent US8273723B2", "about": "“Compositions and methods for improved glycoprotein sialylation” (Sigma-Aldrich Co. LLC, priority 2007, dated 2012)", "key": {"[1]": {"tested_on": "CHO Neu3", "test": "Sialidase assay in the presence of sialidase inhibitors, CHO Neu3", "format": "biochemical, CHO (Chinese hamster ovary)", "protocol": "(§1) Enzymatic sialidase activity studies were performed to confirm that the proteins coded by these two new genes having the expected functions in CHO cells. Briefly, the coding regions for the Neu1 (SEQ ID NO:1) and Neu3 (SEQ ID NO:3) genes, as well as the coding region of the previously reported Neu2 gene (Ferrari et al. (1994) Glycobiology 4(3):367-373) were cloned into pcDNA3.1 mammalian expression vectors. The expression constructs then were transfected into COS7 cells to overexpress the sialidase proteins. The pcDNA3.1 vector alone was also transfected into COS7 cells as the mock transfection. An expression construct containing green fluorescence protein (GFP) was cotransfected into the COS7 cells to normalize the transfection efficiency.\n(§2) Twenty-four hours after transfection, the cells were lysed by sonication. The cell debris was removed by centrifugation at 1000×g for 10 min at 4° C. and the supernatant factions were collected for enzymatic activity. The sialidase assay was performed as previously described (Gramer et al. (1993) Biotechnol Prog 9: 366-373) using 1 mM of 4-methylumbelliferone-Neu5Ac as substrate. For each lysate, 100 μg of protein was used in the assay. The assay was performed in triplicate. […] In fact, the Neu3 protein had more than approximately 6-15 times as much activity as Neu2. […]"}, "[2]": {"tested_on": "proteins encoded by the CHO Neu1, Neu2, and Neu3 genes", "test": "Sialidase assay in the presence of sialidase inhibitors, all sialidases", "format": "biochemical, CHO (Chinese hamster ovary)", "details": "two concentrations, FIG. 2", "protocol": "as §1, §2"}, "[3]": {"tested_on": "hIFNγ protein produced by CHO-hIFNγ cells", "test": "Sialic acid content of purified hIFNγ from shRNA CHO cells by HPLC", "format": "cell-based, CHO (Chinese hamster ovary)", "details": "for levels of sialic acid in hIFNγ protein versus non-target shRNA control: day 6; for sialic acid content of hIFNγ protein: n=4", "protocol": "The levels of sialic acid were analyzed by HPLC in human IFNγ protein produced by the sialidase shRNA targeted cells and non-target shRNA control cells. Spent media samples were collected from 5 L bioreactor cultures at stationary phase (day 6, cell viability around 95%) and death phase (day 13, cell viability around 20%). Human interferon gamma proteins were purified from cell culture supernatants by immunoaffinity purification. Briefly, after centrifugation and filtration to remove cell debris, 30 ml of a protein sample was loaded on an affinity column conjugated with hIFNγ antibody. After washing the column, hIFNγ protein was eluted with elution buffer. Purification was carried out on an AKTA Explorer 100 chromatographic system (Amersham Biosciences). The purified protein was quantified by ELISA as previously described.\nThe sialylation of purified hIFNγ proteins were analyzed by HPLC. Briefly, 50 μg of purified hIFNγ protein sample was lyophilized and resuspended in 100 μl of ultrapure water with 2N acetic acid. The sample was hydrolyzed at 80° C. for 3 hours. Then the sample was filtered and speed-vac dried. Released sialic acid residues were derivatized with a fluorogenic compound, 1,2-diamino-4,5-(methylenedioxy)benzene (DMB), followed by HPLC using C18 reverse phase column."}, "[4]": {"tested_on": "Neu1 mRNA", "test": "Q-RT PCR of Neu1 mRNA in stably shRNA-transduced CHO-hIFNγ cells", "format": "cell-based, CHO (Chinese hamster ovary)", "details": "FIG. 7A", "protocol": "(§3) The expression of each of the three CHO sialidase genes was knocked down using small interfering RNA (siRNA) technologies. Based on the cDNA sequences, several siRNAs against the CHO sialidase genes (Neu1, Neu2, and Neu3) were designed and synthesized for each gene. These siRNAs were transfected into a CHO cell line stably expressing human interferon gamma (CHO-hIFNγ). The transfections were performed in duplicate. Forty-eight hours after transfection, the cells were harvested. RNA and protein were isolated from the transfected cells. Reverse transcription polymerase chain reaction, (RT-PCR) and quantitative RT-PCR (Q-RT-PCR) using gene-specific primers were performed using standard procedures.\n(§4) DNA fragments encoding the effective siRNAs for each sialidase gene (Neu1-S4, Neu2-S3, Neu3-S2) were cloned into the pLKO.1-puro shRNA expression vector. After DNA sequencing confirmation, plasmid DNAs were transfected into HEK293 cells to produce lentivirus packed with shRNA cassettes. After infection of suspension CHO-hIFNγ cells with lentivirus containing shRNA cassettes and puromycin selection, CHO-hIFNγ cells harboring shRNA cassettes for Neu1, Neu2 and Neu3 genes were obtained. Q-RT PCR was performed to confirm gene-silencing effects at the level of mRNA (FIG. 7). […]"}, "[5]": {"tested_on": "Neu2 mRNA", "test": "Q-RT PCR of Neu2 mRNA in stably shRNA-transduced CHO-hIFNγ cells", "format": "cell-based, CHO (Chinese hamster ovary)", "details": "FIG. 7B", "protocol": "as §3, §4"}, "[6]": {"tested_on": "Neu3 mRNA", "test": "Q-RT PCR of Neu3 mRNA in stably shRNA-transduced CHO-hIFNγ cells", "format": "cell-based, CHO (Chinese hamster ovary)", "details": "FIG. 7C", "protocol": "as §3, §4"}, "[7]": {"tested_on": "sialidase activity in CHO-hIFNγ cells", "test": "Sialidase activity assay in CHO-hIFNγ cells harboring shRNA", "format": "cell-based, CHO (Chinese hamster ovary)", "details": "stable shRNA, FIG. 8", "protocol": "(§5) Twenty-four hours after transfection, the cells were lysed by sonication. The cell debris was removed by centrifugation at 1000×g for 10 min at 4° C. and the supernatant factions were collected for enzymatic activity. The sialidase assay was performed as previously described (Gramer et al. (1993) Biotechnol Prog 9: 366-373) using 1 mM of 4-methylumbelliferone-Neu5Ac as substrate. For each lysate, 100 μg of protein was used in the assay. The assay was performed in triplicate. […] In fact, the Neu3 protein had more than approximately 6-15 times as much activity as Neu2.\nas §4, with “7). The mRNA expression knockdown of Neu1 (Neu1-S4) was over 95% in Neu1-shRNA cells (FIG. 7A), about 50% knockdown with Neu2 (Neu2-S3) in Neu2-shRNA cells (FIG. 7B), and over 70% knockdown with Neu3 (Neu3-S2) in Neu3-shRNA cells (FIG. 7C).” for “7).”"}, "[8]": {"test": "Sialidase assay on lysates of COS7 cells overexpressing CHO sialidase proteins", "format": "biochemical, CHO (Chinese hamster ovary)", "protocol": "as §1, §5"}}}
{"molecule": "CC(=O)N[C@H]1[C@H]([C@H](O)[C@H](O)CO)OC(C(=O)O)=C[C@@H]1O", "note": "[Neu5Ac2en]", "values": [{"measurement": "decrease of sialidase activity", "setting": "[1]; 0.1 mM inhibitor", "result": "about 30%"}, {"measurement": "reduction of sialidase activity", "setting": "[1]; 0.5 mM inhibitor", "result": "about 60%"}, {"measurement": "inhibitory effect on sialidase activity (comparison of the two inhibitors)", "setting": "[2]", "result": "greater inhibitory effects than Neu5Ac"}]}
{"molecule": "Neu1-S4: siRNA/shRNA against CHO Neu1; sense GGACACUACGCGUCAUCUGtt (SEQ ID NO 10), antisense CAGAUGACGCGUAGUGUCCtt (SEQ ID NO 11) (sense GGACACUACGCGUCAUCUGTT; antisense CAGAUGACGCGUAGUGUCCTT; chemistry not given here; listed as Cricetulus griseus)", "values": [{"measurement": "levels of sialic acid in hIFNγ protein versus non-target shRNA control", "setting": "[3]", "result": "not significantly different"}, {"measurement": "sialylation of hIFNγ versus non-target shRNA control", "setting": "[3]; day 13", "result": "no obvious improvement"}, {"measurement": "mRNA expression knockdown of Neu1", "setting": "[4]", "result": "over 95%"}]}
{"molecule": "Neu2-S3: siRNA/shRNA against CHO Neu2; sense GACGGAUGAGCAUGCAGAUtt (SEQ ID NO 14), antisense AUCUGCAUGCUCAUCCGUCtt (SEQ ID NO 15) (sense GACGGAUGAGCAUGCAGAUTT; antisense AUCUGCAUGCUCAUCCGUCTT; chemistry not given here; listed as Cricetulus griseus)", "values": [{"measurement": "mRNA expression knockdown of Neu2", "setting": "[5]", "result": "about 50%"}, {"measurement": "levels of sialic acid in hIFNγ protein versus non-target shRNA control", "setting": "[3]", "result": "not significantly different"}, {"measurement": "sialic acid content of hIFNγ protein", "setting": "[3]; day 6 (stationary phase)", "result": "1.945±0.111 pmol sialic acid/pmol hIFNγ"}, {"measurement": "sialic acid content of hIFNγ protein", "setting": "[3]; day 13 (death phase)", "result": "4.948±0.150 pmol sialic acid/pmol hIFNγ"}]}
{"molecule": "Neu3-S2: siRNA/shRNA against CHO Neu3; sense GUACCAGCCGUGUGUUACUtt (SEQ ID NO 18), antisense AGUAACACACGGCUGGUACtt (SEQ ID NO 19) (sense GUACCAGCCGUGUGUUACUTT; antisense AGUAACACACGGCUGGUACTT; chemistry not given here; listed as Cricetulus griseus)", "values": [{"measurement": "sialic acid content of hIFNγ protein", "setting": "[3]; day 6 (stationary phase)", "result": "2.133±0.101 pmol sialic acid/pmol hIFNγ"}, {"measurement": "mRNA expression knockdown of Neu3", "setting": "[6]", "result": "over 70%"}, {"measurement": "sialidase activity compared to non-target shRNA control", "setting": "[7]", "result": "most dramatic reduction"}]}
{"molecule": "CHO Neu3: CHO plasma membrane-associated sialidase, 417 aa, SEQ ID NO:4 (protein, listed as Cricetulus griseus) MEEVSACSLNSTLFQQEHQKGTTYRIPALLYIPPSHTFLAFAEKRSSSKDVDALHLVLRRGVMKGHSVEWGPLQPLMEATLPGHRTMNPCPVWEQSTSRVLLFFICVPDRVTEHWQIRSGKNAARLCFLCSQDAGCSWGEVKDLTEEVIGSELKHWATFAVGPGHGIRLQSGRLIIPTYAYYFSCRFLCFPCSVKPHSLMIYSDDLGVTWHHGKLIGPQVTGECQVAEVTGTSGNLVLYCNARTPNRFRAESFSTDYGDCFQKPTLNTQLCEPRYGCQGSIVSFQPLKMPFSQDPIGKAAPTTQKSPLLDSFLEREEGVGRPSGTWLLYSHPTSKKRRINLGIYYNRNPLEVTCWSRPWILHCGPCGYSDLAVVEEQGLFACLFECGQEHECEQIAFRLFSVQEVLSCEDCTGPSRD", "values": [{"measurement": "sialidase activity compared to negative control (mock transfection) and positive control (Neu2)", "setting": "[8]; 100 μg lysate protein, 1 mM 4-methylumbelliferone-Neu5Ac, normalized with GFP readings", "result": "significant sialidase activities"}, {"measurement": "sialidase activity relative to Neu2", "setting": "[8]; more than approximately, lysates of transfected COS7 cells", "result": "6-15 times"}, {"measurement": "sialic acid content of hIFNγ protein", "setting": "[3]; day 13 (death phase)", "result": "5.175±0.414 pmol sialic acid/pmol hIFNγ"}]}
